In patent publication US20130303564A1, “METHOD FOR TREATING A NEURODEGENERATIVE DISORDER” (RUSH UNIVERSITY MEDICAL CENTER, priority 2012, published 2013):

What was measured:
NF-κB = test: Transcriptional activity of NF-κB (PBIIX-Luc reporter) in BV-2 microglial cells; format: cell-based, mouse; conditions: co-incubated with NaPB 6 h
Procedure: Transcriptional activity of NF-κB: Transcriptional activity of NF-κB was assayed. […] After 24 h of transfection, […], and firefly and Renilla luciferase activities were recorded in a TD-20/20 Luminometer (Turner Designs, Sunnyvale, Calif.) by analyzing total cell extract according to standard instructions provided in the Dual Luciferase Kit (Promega), Relative luciferase activity of cell extracts was typically represented as (firefly luciferase value/Renilta luciferase value)×10^−3.

BV-2 microglial cells = test: Superoxide production in microglial cells; format: cell-based, mouse; conditions: co-incubated with NaPB 6 h, then LPS 10 min
Excerpt: Results represent three independent experiments.
Superoxide measurements: Superoxide production was detected by LumiMax™ Superoxide Anion Detection Kit (Stratagene) as described by us (30).

primary mouse microglia = test: LPS-induced NO (nitrite) production in primary mouse microglia; format: cell-based; conditions: other HDAC inhibitors, different concentrations, 6 h preincubation, LPS 24 h
Procedure: Primary mouse microglia were treated with different concentrations of NaPB for 6 h followed by stimulation with LPS under serum-free condition. After 24 h of stimulation, concentrations of nitrite were measured in supernatants (A) and the level of iNOS protein was monitored in cells by Western blot (B). […] After 5 h of stimulation, the expression of iNOS mRNA was monitored by semi-quantitative RT-PCR (C). Cells preinctibated with different concentration of trichostatin A (TSA) and sodium butyrate (NaBu) for 6 h were stimulated with LPS for 24 h under serum-free condition followed by monitoring the level of nitrite in supernatants (p). […] Primary human astroglia isolated from fetal brain tissues were treated with different concentrations of NaPB for 6 h followed by stimulation with IL-1β under serum-free condition. After 48 h of stimulation, concentrations of nitrite (E) were measured in supernatants. Human astroglia plated at 70-80% confluence in 12-well plates were co-transfected with 0.25 μg of phiNOS(7.2)Luc and 12.5 ng of pRL-TK using the Lipofectamine-Plus (Invitrogen). Twenty-four h after transfection, cells received NaPB. After 6 h of incubation, cells were stimulated with IL-1β (20 ng/ml) for 12 h. Firefly (ff-Luc) and Renilla (r-Luc) luciferase activities were obtained by analyzing the total cell extract (F).
Activated microglia and astroglia are known to produce excessive amount of NO having the potential of damaging neurons in neurodegenerative disorders. We investigated the effect of NaPB on the expression of iNOS in microglia. LPS is a prototype inducer of various proinflammatory molecules in different cell types including mouse microglia. Therefore, primary mouse microglia preincubated with different doses of NaPB for 6 h were stimulated with LPS under serum-free condition. […] We used trichostatin A (TSA) and sodium butyrate (NaBu) for this purpose.
Isolation of Mouse Microglia: Microglia were isolated from mixed glial cultures. Briefly, on day 7-9, the mixed glial cultures were washed three times with Dulbecco's modified Eagle's medium/F-12 and subjected to shaking at 240 rpm for 2 h at 37° C. on a rotary shaker. The floating cells were washed and seeded on to plastic tissue culture flasks and incubated at 37° C. for 1 h. The attached cells were seeded onto new plates for further studies. […] Mouse BV-2 microglial cells (kind gift from Virginia Bocchini of Universityof Perugia) were also maintained and induced as indicated above.

cholesterol = test: Serum cholesterol in male C57/BL6 mice; format: in vivo, mouse; conditions: 1 mg/kg body wt/d via gavage, 7 d
Procedure: Mice (6-8 wk old) were treated with NaPB (200 mg/kg body wt/d) and pravastatin (1 mg/kg body wt/d) separately via gavage for 7 d followed by quantification of cholesterol in serum using a simple fluorometric method.
Intermediates of the mevalonate pathway play a role in the expression of iNOS and proinflammatory cytokines in glial cells. End product of the mevalonate pathway is cholesterol and therefore, we investigated if NaPB had any effect on the level of cholesterol in vivo in mice.
Assay of cholesterol in serum: Total cholesterol was quantified irr serum by using an Amplex Red Cholesterol Assay kit from Invitrogen. Briefly, cholesterol was oxidized by cholesterol oxidase to yield H2O2, which then reacted with 10-acetyl-3,7 dihydroxyphenoxazine (Amplex Red). In the presence of horseradish peroxidase (HRP), this Amplex Red:H2O2 complex produced highly fluorescent resorufin, which was detected by fluorometry.

| SMILES | effect on NaPB-mediated inhibition of NF-κB activation (NF-κB) | effect on NaPB-mediated inhibition of superoxide production (BV-2 microglial cells) | effect on LPS-induced production of NO (primary mouse microglia) | reduction of the level of cholesterol in serum (cholesterol) |
| --- | --- | --- | --- | --- |
| CC(C)=CCC/C(C)=C/CC/C(C)=C/COP(=O)(O)OP(=O)(O)O [FPP, farnesyl pyrophosphate] | abrogated the inhibitory effect of NaPB | – | – | – |
| CC(C)=CCC/C(C)=C/CC/C(C)=C/CC/C(C)=C/COP(=O)(O)OP(=O)(O)O [GGPP, geranylgeranyl pyrophosphate] | abrogated the inhibitory effect of NaPB | abolished the inhibitory effect of NaPB | – | – |
| CC(C)(CO[P@@](=O)(O)O[P@@](=O)(O)OC[C@H]1O[C@@H](n2cnc3c(N)ncnc32)[C@H](O)[C@@H]1OP(=O)(O)O)[C@@H](O)C(=O)NCCC(=O)NCCSC(=O)C[C@@](C)(O)CC(=O)O [HMG-CoA] | abrogated the inhibitory effect of NaPB | abolished the inhibitory effect of NaPB | – | – |
| CCCC(=O)[O-].[Na+] [NaBu, sodium butyrate] | – | – | stimulated | – |
| CC(/C=C/C(=O)NO)=C\[C@@H](C)C(=O)c1ccc(N(C)C)cc1 [TSA, trichostatin A] | – | – | attenuated | – |
| CC(C)CCC[C@@H](C)[C@H]1CC[C@H]2[C@@H]3CC=C4C[C@@H](O)CC[C@]4(C)[C@H]3CC[C@]12C [cholesterol] | had no effect | had no effect | – | – |
| COC1=C(OC)C(=O)C(C/C=C(\C)CC/C=C(\C)CC/C=C(\C)CC/C=C(\C)CC/C=C(\C)CC/C=C(\C)CC/C=C(\C)CC/C=C(\C)CC/C=C(\C)CCC=C(C)C)=C(C)C1=O [coenzyme Q] | had no effect | had no effect | – | – |
| CC(O)(CCO)CC(=O)O (centres unmarked) [mevalonate] | abrogated the inhibitory effect of NaPB | abolished the inhibitory effect of NaPB | – | – |
| CC[C@H](C)C(=O)O[C@H]1C[C@H](O)C=C2C=C[C@H](C)[C@H](CC[C@@H](O)C[C@@H](O)CC(=O)O)[C@H]21 [pravastatin] | – | – | – | ~29% |
